Reference: publication PMC6267684, “Pharmacokinetic evaluation of the PNC disassembler metarrestin in wild-type and Pdx1-Cre;LSL-Kras^G12D/+;Tp53^R172H/+ (KPC) mice, a genetically engineered model of pancreatic cancer” (Cancer Chemotherapy and Pharmacology, 2018)

What was measured:
[1] = tested on: PNC in PC3M cells; experiment: PNC disassembly assay in PC3M cells; type: cell-based; details: PC3M (PTB-GFP) cells
Description: The PNC disassembly assay has been previously described. […] Cells were fixed with […] for 10 min at room temperature. […] Confocal images were obtained using Opera Phoenix (PerkinElmer, Waltham, MA) and a 20× objective lens.
To examine whether measured intratumor metarrestin concentrations measured in PK studies track with intracellular metarrestin concentration, we first decided to synthesize a fluorophore conjugated analog of metarrestin. Structure activity relationship studies around the structure of metarrestin were conducted in a high throughput assay that measured in dose dependence the ability of compounds to reducing PNC prevalence in PC3M cells. […] This analog was chemically conjugated to the fluorophore boron-dipyrromethene (BODIPY®) to track the disassembly of the PNC in PC3M cancer cells by confocal microscopy (Suppl. Figure 2). […] Next, to examine cellular metarrestin levels in relation to extracellular concentrations, we exposed KPC and PC3M cells at 1 and 10 µM concentrations of metarrestin and harvested cells at different timepoints.

[2] = tested on: PNC in murine KPC tumors; experiment: PNC prevalence in KPC tumors (immunofluorescence with α-PTB1 antibodies); type: in vivo, KPC mice; details: after 14-day treatment with 25 mg/kg by oral gavage; untreated 38.2%
Description: Blood samples were collected in K2EDTA tubes and plasma was harvested after centrifugation at 3000 rpm for 10 min. Tissue samples were weighed and flash-frozen for PK and PD mRNA expression analyses, embedded into OCT blocks for PNC determination and processed into FFPE blocks for histopathology assessment. All PK samples were stored at − 80 °C until analysis.
To establish a dose–response relationship between intratumor exposure levels of metarrestin and mechanism of action of the drug in vivo, we first confirmed the ability of metarrestin to suppress PNC structures in murine pancreatic KPC tumors. The prevalence of PNC bodies (expressed as the fraction of cells containing one or more PNCs) was 38.2% in untreated murine KPC tumors (Fig. 4a) which was similar to the PNC prevalence in the previously examined NOD/IL2 gamma (null) PANC1 metastasis model (35.1%) and higher than in cancer cell lines derived from primary pancreatic tumors (average ~ 23.5%). […]
Fig. 4 Intratumor metarrestin exposure correlates with PNC prevalence and mRNA expression levels of transcriptional regulators FOXA1 and FOXO6. a Metarrestin disassembles the peri-nucleolar compartment (PNC) in KPC tumors. […] Relative expression levels of FOXA1 and FOXO6 determined by qRT-PCR and normalized to reference genes. […]

[3] = tested on: KPC and PC3M cells; experiment: UPLC–MS/MS measurement of cellular metarrestin concentration; type: cell-based; details: 1 and 10 µM, within 40 min
[4] = tested on: cleaved caspase 3; experiment: Cleaved caspase 3 immunohistochemistry in KPC tumors; type: in vivo, KPC mice; details: 25 mg/kg by gavage (PO) for 14 days
From the text: To arrive at markers driven by metarrestin exposure, we next subjected untreated and metarrestin-treated KPC tumors and matched normal pancreata to unbiased gene expression profiling using RNA-sEq. […] Thus, FOXA1 and FOXO6 may provide leads for future predictive biomarker development, assist in determination of the minimally efficacious dose, and add additional insight into the mechanism of action of metarrestin.
Suppl. Fig. 7. […] Nuclear cleaved caspase 3 expression levels in metarrestin-treated KPC tumors. Representative images of cleaved caspase 3 immunohistochemistry in tumors of KPC mice treated with vehicle (top) or 25mg/kg metarrestin for 14 days (bottom). Images 20×, inset 40×.

[5] = Preliminary toxicity profile, 25 mg/kg PO gavage for 14 days; details: for ALP (alkaline phosphatase) / ALT (alanine transaminase) / AST (aspartate transaminase): in U/L (unit assumed); for Weight: in g (unit assumed)
[6] = females, 25 mg/kg, 14 days, in g/dL (unit assumed)
[7] = females, N=10, 25 mg/kg, number of animals
[8] = males, N=10, 25 mg/kg, number of animals

With `N=c1c2c(-c3ccccc3)c(-c3ccccc3)n(Cc3ccccc3)c2ncn1[C@H]1CC[C@H](O)CC1` [metarrestin, Trans-4-(7-benzyl-4-imino-5,6-diphenyl-4,7-dihydro-3H-pyrrolo[2,3-d]pyrimidin-3-yl) cyclohexanol] the IC50 ([1]; Homo sapiens, PC-3M) was 400 nM, the IC50 [1] was 397 nM and the “PNC prevalence in KPC tumors” value [2] was 9.8%. The “cellular levels, % of media concentrations” value [3] was 40–100%, the “cell death in KPC tumors (nuclear cleaved caspase 3)” value [4] was “does not induce cell death” and the “body weight, hypoactivity, liver function tests compared to vehicle controls” value ([5]; daily 25 mg/kg by oral gavage for 14 days) was “not associated with any change in body weight, hypoactivity, or change in liver function tests”. For the same compound, the “CHOL (cholesterol)” value ([5]; females, 25 mg/kg, 14 days) was 123 ± 18.4, the “LD (lactate dehydrogenase)” value ([5]; females, 25 mg/kg, 14 days) was 495 ± 89.7 and the “ALP (alkaline phosphatase)” value ([5]; females, 25 mg/kg, 14 days) was 136 ± 13.8. For the same compound, the “ALT (alanine transaminase)” value ([5]; females, 25 mg/kg, 14 days) was 100 ± 47.6, the “AST (aspartate transaminase)” value ([5]; females, 25 mg/kg, 14 days) was 100 ± 28.3 and the “GLOB (globulin)” value [5, 6] was 2.1 ± 0.13. The “TP (total protein)” value [5, 6] was 5.2 ± 0.21, the Weight ([5]; females, Day 1, 25 mg/kg) was 23.1 ± 1.55 and the “Weight Change” value ([5]; females, Day 1 to 4, 25 mg/kg) was 0.0 ± 0.80. For the same compound, the “Weight Change” value ([5]; females, Day 1 to 15, 25 mg/kg) was 2.7 ± 1.04, the “Weight Change” value ([5]; females, Day 4 to 7, 25 mg/kg) was 1.2 ±0.67 and the Weight ([5]; females, Day 7, 25 mg/kg) was 24.3 ± 1.32. It also gave a Weight ([5]; females, Day 15, 25 mg/kg) of 25.8 ± 1.70, a Death [5, 7] of 0 and a Rough coat [5, 7] of 0. For the same compound, the Scant feces [5, 7] was 0, the “CRE (creatinine)” value ([5]; males, 25 mg/kg, 14 days) was 0.09 ± 0.015 and the “P04 (phosphorus)” value ([5]; males, 25 mg/kg, 14 days) was 10.2 ± 0.50. For the same compound, the “ALP (alkaline phosphatase)” value ([5]; males, 25 mg/kg, 14 days) was 84 ± 13.5, the “ALT (alanine transaminase)” value ([5]; males, 25 mg/kg, 14 days) was 137 ± 67.4 and the “AST (aspartate transaminase)” value ([5]; males, 25 mg/kg, 14 days) was 88 ± 24.3. For the same compound, the “K (potassium)” value ([5]; males, 25 mg/kg, 14 days, in mmol/L (unit assumed)) was 7.3 ± 0.21, the Weight ([5]; males, Day 1, 25 mg/kg) was 31.4 ± 1.38 and the “Weight Change” value ([5]; males, Day 1 to 4, 25 mg/kg) was 1.1 ± 0.90. For the same compound, the “Weight Change” value ([5]; males, Day 1 to 15, 25 mg/kg) was 3.1 ± 1.51, the “Weight Change” value ([5]; males, Day 4 to 7, 25 mg/kg) was 0.9 ± 0.59 and the Weight ([5]; males, Day 7, 25 mg/kg) was 33.3 ± 2.02. For the same compound, the Weight ([5]; males, Day 15, 25 mg/kg) was 34.4 ± 2.33, the Cold to touch [5, 8] was 0 and the Death [5, 8] was 0. It also gave a Hypoactivity [5, 8] of 0, a Rough coat [5, 8] of 6 and a Scant feces [5, 8] of 0. It also gave a Thin [5, 8] of 0.
